Reference: PubChem BioAssay (NCI)
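Following 48 hours of exposure in 96-well plates, responses at five concentrations were used to interpolate endpoints linearly. GI50 = concentration required for 50% inhibition of growth. At the TGI there is no net growth.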

Legend:
Assay in all cases: NCI tumour cell line growth inhibition, 48 h
LOX IMVI melanoma = system: LOX IMVI melanoma
HCT-15 colon = system: HCT-15 colon
SN12C renal = system: SN12C renal
HT29 colon = system: HT29 colon
IGROV1 ovarian = system: IGROV1 ovarian
SW-620 colon = system: SW-620 colon
HCT-116 colon = system: HCT-116 colon
SF-539 CNS = system: SF-539 CNS
COLO 205 colon = system: COLO 205 colon
OVCAR-8 ovarian = system: OVCAR-8 ovarian

| Compound | TGI (LOX IMVI melanoma) [µM] | TGI (HCT-15 colon) [µM] | TGI (SN12C renal) [µM] | TGI (HT29 colon) [µM] | TGI (IGROV1 ovarian) [µM] | TGI (SW-620 colon) [µM] | TGI (HCT-116 colon) [µM] | TGI (SF-539 CNS) [µM] | TGI (COLO 205 colon) [µM] | TGI (OVCAR-8 ovarian) [µM] | GI50 (LOX IMVI melanoma) [µM] | GI50 (HCT-15 colon) [µM] | GI50 (SN12C renal) [µM] | GI50 (HT29 colon) [µM] | GI50 (IGROV1 ovarian) [µM] | GI50 (SW-620 colon) [µM] | GI50 (HCT-116 colon) [µM] | GI50 (SF-539 CNS) [µM] | GI50 (COLO 205 colon) [µM] | GI50 (OVCAR-8 ovarian) [µM] |
| --- | --- | --- | --- | --- | --- | --- | --- | --- | --- | --- | --- | --- | --- | --- | --- | --- | --- | --- | --- | --- |
| CC/C(=N\NS(=O)(=O)c1ccccc1)c1ccccc1 | > 100 | > 100 | > 100 | > 100 | > 100 | > 100 | > 100 | > 100 | > 100 | > 100 |  |  |  |  |  |  |  |  |  |  |
| Cl[Si]1(Cl)Oc2ccccc2O[Si](Cl)(Cl)Oc2ccccc2O1 | 36.5 | > 100 | > 100 | 70.9 | > 100 | 54.5 | > 100 | 97.9 | 59.7 | > 100 |  |  |  |  |  |  |  |  |  |  |
| C[C@H](Cn1ncnn1)Nc1ncc2cc(Oc3ccc(F)cc3F)c(=O)n(C)c2n1 | > 25 | > 25 | > 25 | > 25 | > 25 | > 25 | > 25 | > 25 | > 25 | > 25 | > 25 | > 25 | > 25 | > 25 | > 25 | > 25 | > 25 | > 25 | > 25 | > 25 |
| CC(=O)OC1COC(n2c(=S)n(-c3ccccc3)c(=O)c3cc(Br)ccc32)C(OC(C)=O)C1OC(C)=O (configuration not stated) | > 100 | > 100 | > 100 | > 100 | > 100 | > 100 | > 100 | 77.7 | > 100 | > 100 |  |  |  |  |  |  |  |  |  |  |
| Cc1cn(C2OC(C)(CO)C(O)C2O)c(=O)[nH]c1=O (configuration not stated) | > 100 | > 100 | > 100 | > 100 | > 100 | > 100 | > 100 | > 100 | > 100 | > 100 |  |  |  |  |  |  |  |  |  |  |
| Cc1ccc2nc3c(Cl)c(C)c(=O)cc-3sc2c1 | > 100 | > 100 | > 100 | > 100 | > 100 | > 100 | > 100 | > 100 | > 100 | > 100 |  | 34.3 | 69 | > 100 | > 100 |  | 39.6 | 50.9 | > 100 |  |
| CC(=O)N(C(C)=O)C1=C2c3ccccc3N(S(=O)(=O)c3ccccc3)C2n2c(=O)n(-c3ccccc3)c(=O)n2C1 (configuration not stated) | 81.3 | > 100 | > 100 | > 100 | > 100 | > 100 | > 100 | 38.5 | 80.2 | > 100 |  |  |  |  |  |  |  |  |  |  |
| O=C/C(=C(/Cl)c1ccc(O)cc1)c1ccccc1 | 46.9 | 46 | > 61.3 | > 62.7 | 66.6 | > 68 | 37.2 | > 57.1 | 46.9 | > 92.4 |  |  |  |  |  |  |  |  |  |  |
| CC1(C)N=C(N)N=C(N)N1c1ccc(OCC(=O)Nc2ccccc2)c(Cl)c1 | > 100 | > 100 | > 100 | > 100 | > 100 | > 100 | > 100 | > 100 | > 100 | > 100 | 0.589 | 72.3 | 0.647 | 0.333 | 0.688 | 0.456 | 0.502 | 2.1 | 18.3 | 6.69 |
| O=C(c1ccc2ccccc2c1)c1c(C(F)(F)F)n([O-])c2ccc(Cl)cc2[n+]1=O | 0.375 | 2.94 | 3.2 | 2.93 | 1.06 | 2.7 | 2.33 | 2.92 | 2.73 | 2.91 | 0.195 | 1.55 | 1.69 | 1.52 | 0.334 | 1.41 | 1 | 1.58 | 1.34 | 1.55 |
| c1ccc2nc3c(cc4ccccn43)nc2c1 | > 100 | > 100 | > 100 | > 100 | 26.1 | > 100 | > 100 | > 100 | > 100 | > 100 | 47.1 | 73.4 | 70 | > 100 | 1.81 | > 100 | 23.5 | 36.7 | 64 | 34.8 |
| O=C1C(SCCO)=C(SCCO)C(=O)c2ccccc21 | 0.812 | 3.58 | 3.06 | 3.98 | 2.78 | 1.47 | 9.54 | 2.02 | 3.27 | 1.22 |  |  |  |  |  |  |  |  |  |  |
